{"source": "patent EP3748362A1", "about": "“IN VITRO METHOD FOR DETECTING RENAL DISEASE” (Fundacion Instituto De Investigacion Sanitaria Fundacion …, priority 2019, dated 2020)", "key": {"CIAP1-TRAF3 complexes": {"test_system": "CIAP1-TRAF3 complexes", "test": "TRAF3 immunoprecipitation (ubiquitin-Lys-48, CIAP1) in PBMCs from ESRD patients", "format": "in vivo, human", "experimental": "Intracellular protein and mRNA levels were measured in PBMCs from ESRD patients on hemodialysis. Inclusion criteria were as follows: age >45 years; male sex; informed consent; and absence of active inflammatory, infectious, or malignant diseases at the initiation or during the study. This study was approved by the IIS-Fundación Jiménez Diaz Ethics Committee. Patients were enrolled after providing written informed consent. PBMCs were separated from whole blood samples (30 ml into EDTA tubes) by a density gradient centrifugation method using Ficoll density gradient centrifugation. In total, 50x10^6 of PBMCs were obtained from 30 ml of whole blood and 6x10^6 PBMCs were used to isolate protein, RNA and nuclear/cytosolic protein levels using the NE-PER Reagent (Pierce) following the manufacturer's instructions.\nCells growing in tissue culture dish plates, were lysed in 300-500 µl Triton-NP-40 lysis buffer [50 mmol/L Tris-HCl pH 8, 150 mmol/L NaCl, 1 mmol/L phenylmethylsulphonylfluoride, 1% NP-40/IGEPAL, and a phosphatase-inhibitor cocktail (Set II, Calbiochem)], scraped off the dish and incubated 1 hour to 4°C with shaking. Cell lysates were precleared by incubating with 10 µl protein A-agarose bead slurries (0.5 mL agarose/2 mL phosphate-buffered saline) for 30 min at 4°C, and then centrifuged three times for 5 minutes at 2500 rpm, to wash supernatants. […]"}, "NF-κB1": {"test_system": "NF-κB1", "test": "Canonical NF-κB1 activation (western blot) in TWEAK-stimulated HK2 cells", "format": "cell-based, Human", "conditions": "12 µM paricalcitol for 48 hours, TWEAK 100 ng/ml 15 min, p65 and IκBα phosphorylation", "experimental": "Human kidney proximal tubule epithelial cells (HK2 cell line, ATCC CRL-2190) were grown in RPMI 1640 with 10% fetal bovine serum (FBS), 1% glutamine, 100 U/ml penicillin, 100 µg/ml streptomycin, 5 µg/ml insulin-transferrin-selenite and 36 ng/ml hydrocortisone in 5% CO2 at 37° C. When cells reached 60 to 70% confluence, they were serum-depleted for 24 hours before the experiment.\nCells were stimulated with 100ng/ml recombinant human soluble TWEAK (Millipore) or p-200 µg/ml cresyl-sulfate (Raymond Vanholder and Griet Glorieux, University of Gent, Belgium). Concentrations of TWEAK and p-cresyl-sulfate were based on previously published dose-response experiments (Poveda et al. 2014; Sanz et al. 2008). In some experiments cells were preincubated for 48 hours with the paricalcitol 12 µmol/L (Abbott) prior to stimulation. DMSO, used as a solvent in some cases, had no effect on cell viability or on gene expression levels.\n(§1) For western blot, cell (25 µg/lane) and kidney (100-150 µg/lane) protein extracts were separated on 6%-12% polyacrylamide-SDS gels under reducing conditions. […] Autoradiographs were scanned using the Gel Doc™ EZ imager and analyzed with the Image Lab 3.0 software (BioRad)."}, "TRAF3": {"test_system": "TRAF3", "test": "Renal TRAF3 (western blot), folic acid-induced renal injury in mice", "format": "in vivo", "conditions": "folic acid 300 mg/kg model; paricalcitol 25 µg/kg/day i.p.", "experimental": "All animal procedures were performed according to the guidelines of animal research in the European Community and with prior approval by the Ethics Committee of the Health Research of the IIS-Fundacion Jiménez Díaz. For in vivo studies, mice received a daily intraperitoneal injection of the VDRA Paricalcitol starting 48 hours prior to induction of kidney damage.\nAt the time of sacrifice, animals were anesthetized with 5 mg/kg xylazine (Rompun, Bayer AG) and 35 mg/kg ketamine (Ketolar, Pfizer) and the kidneys perfused in situ with cold saline before removal. Then, kidney portions were fixed in formalin buffer for immunohistochemistry studies or immediately frozen in liquid nitrogen for gene and protein studies.\nFolic acid nephropathy is a classical model of kidney tubulointerstitial injury and inflammation that has been reported in humans. Mice received a single intraperitoneal injection of folic acid (Sigma) 300 mg/kg in 0.3 mol/l sodium bicarbonate or vehicle, and were sacrificed 48 hours later. […]\nas §1"}, "NF-κB 1 pathway": {"test_system": "NF-κB 1 pathway", "test": "Canonical NF-κB1 activation in TWEAK-stimulated PBMCs from healthy donors", "format": "cell-based, Human", "conditions": "12 µM paricalcitol, TWEAK 100 ng/ml, phosphorylated p65"}}}
{"smiles": "C[C@H](/C=C/[C@H](C)C(C)(C)O)[C@H]1CC[C@H]2/C(=C/C=C3C[C@@H](O)C[C@H](O)C3)CCC[C@]12C", "note": "[paricalcitol]", "values": [{"measurement": "TRAF3 ubiquitination and CIAP1-TRAF3 interaction", "setting": "CIAP1-TRAF3 complexes; PBMCs of paricalcitol-treated ESRD patients, TRAF3 immunoprecipitation", "value": "significantly lowering to values in the range of healthy controls"}, {"measurement": "CIAP-1 levels", "setting": "CIAP1-TRAF3 complexes; whole protein extracts of PBMCs, paricalcitol-treated ESRD patients", "value": "close to control values"}, {"measurement": "TWEAK-induced NF-κB1 activation", "setting": "NF-κB1", "value": "did not modulate"}, {"measurement": "renal TRAF3 protein levels", "setting": "TRAF3", "value": "restored renal TRAF3 protein levels to values of control mice"}, {"measurement": "canonical NF-κB 1 pathway", "setting": "NF-κB 1 pathway", "value": "without modulating"}]}
